In PMC7969873 (Cell Reports, 2021):
pIC50: −log10 of the molar value. Read-outs that look alike come from different tables or passages of the source.

Experiments:
SARS-CoV-2 [1] = assay: microbe, parasite or virus in culture; type: cell-based; conditions: for pIC50: IFA, read-out: IC50, inhibition of SARS-CoV-2 infectivity
SARS-CoV-2 [2] = type: cell-based; conditions: 250 nM, Vero E6 cells, 48 h
SARS-CoV-2 [3] = assay: SARS-CoV-2 infection of HEK293-ACE2 cells (IFA); type: cell-based; conditions: 250 nM, pre-treated 24 hours, one day post-infection
hiPSC-CMs = assay: Cardiomyocyte beating / in vitro cardiotoxicity in hiPSC-CMs; type: cell-based, human; conditions: 250 nM
Protocol: Thus, we used the human-induced pluripotent stem-cell-derived cardiomyocyte (hiPSC-CM) system for antiviral drug testing against SARS-CoV-2. […] Thus, this cardiomyocyte system is useful for antiviral drug testing against SARS-CoV-2. […] The inhibition of virus production by berzosertib was evaluated by quantifying the infectious virus (TCID50) in the supernatant at various time points (Figure 2B). […] Infection of cardiomyocytes with SARS-CoV-2 was confirmed by specific staining of cardiac troponin T (cTnT) and viral spike proteins (Figure 2E). Untreated SARS-CoV-2-infected cells had infection-mediated cell injury with disrupted troponin T fibers.

SARS-CoV-2 [4] = type: cell-based; conditions: hiPSC-CMs; 250 nM
[5] = HeLa-ACE2 uninfected host cell cytotoxicity counter screen; type: cell-based; conditions: human, uninfected HeLa-ACE2 cells; read-out: median cytotoxic concentration (CC50)
Protocol: Compounds were acoustically transferred into 1,536-well μclear plates (Greiner Part. No. 789091). HeLa-ACE2 cells were maintained as described for the infection assay and seeded in the assay-ready plates at 400 cells/well in DMEM with 2% FBS and plates were incubated for 24 hours at 37°C 5% CO2. To assess cell viability, the Image-iT DEAD green reagent (Thermo Fisher) was used according to manufacturer instructions. Cells were fixed with 4% paraformaldehyde, and counterstained with DAPI.

SARS-CoV-2 [6] = assay: microbe, parasite or virus in culture; type: cell-based; conditions: Severe acute respiratory syndrome coronavirus 2, A549-ACE2, 24 h, 24 h, read-out: IC50, SARS-CoV-2 immunostaining signal
SARS-CoV-2 [7] = conditions: HeLa-ACE2 cells
SARS-CoV-2 [8] = assay: microbe, parasite or virus in culture; type: cell-based; conditions: Severe acute respiratory syndrome coronavirus 2, Calu-3 cells, read-out: IC50, SARS-CoV-2 viral titer
[9] = Severe acute respiratory syndrome coronavirus 2, Vero C1008, Vero E6 cells

IFN-α
blocking of SARS-CoV-2 infection (IFA) (SARS-CoV-2 [1]; Vero E6 cells, 48 hpi, hydroxychloroquine and EIDD-2801 10 μM): effectively blocked

Cn1cc(-c2ccc3nnc(C(F)(F)c4ccc5ncccc5c4)n3n2)cn1 [JNJ-38877605]
antiviral activity (prevention of viral CPE) in primary screen (SARS-CoV-2 [2]): antiviral activity

Cn1cc(C2=C(c3cn(C4CCN(Cc5ccccn5)CC4)c4ccccc34)C(=O)NC2=O)c2ccccc21 [Enzastaurin]
antiviral activity (prevention of viral CPE) in primary screen (SARS-CoV-2 [2]): antiviral activity

CC(C)(O)CNc1ncc(-c2ccnc(Nc3ccnc(Cl)c3)n2)c(CC2CC2)n1 [VPS34-IN1]
pIC50 (SARS-CoV-2 [1]; [9]): 6.90 to 7.30
antiviral activity (prevention of viral CPE) in primary screen (SARS-CoV-2 [2]): antiviral activity

COc1cc2nccc(Oc3ccc(NC(=O)Nc4ccc(F)cc4F)c(F)c3)c2cc1OC [Ki8751]
antiviral activity (prevention of viral CPE) in primary screen (SARS-CoV-2 [2]): antiviral activity

Cc1ccc(C(=O)Nc2cccc(C(F)(F)F)c2)cc1Nc1nc(-c2cccnc2)nc2c1cnn2C [NVP-BHG712]
antiviral activity (prevention of viral CPE) in primary screen (SARS-CoV-2 [2]): antiviral activity

O=C1c2ccc(Nc3ccc(F)cc3F)cc2CCc2ccc(OC[C@H](O)CO)cc21 [Skepinone-L]
antiviral activity (prevention of viral CPE) in primary screen (SARS-CoV-2 [2]): antiviral activity

O=C1NC(=O)/C(=C/c2ccc3c(c2)OC(F)(F)O3)S1 [AS-604850]
antiviral activity (prevention of viral CPE) in primary screen (SARS-CoV-2 [2]): antiviral activity

Cc1c(CN2CCN(C(=O)[C@H](C)O)CC2)sc2c(N3CCOCC3)nc(-c3cnc(N)nc3)nc12 [GDC-0980]
antiviral activity (prevention of viral CPE) in primary screen (SARS-CoV-2 [2]): antiviral activity

CN1CCN(Cc2ccc(-c3cnc4[nH]cc(-c5ccc6[nH]ccc6c5)c4c3)cc2)CC1 [URMC-099]
pIC50 (SARS-CoV-2 [1]; [9]): 6.90 to 7.30
antiviral activity (prevention of viral CPE) in primary screen (SARS-CoV-2 [2]): antiviral activity

CNC(=O)c1cccc(-c2ccc3c(N4CCOC[C@@H]4C)nc(N4CCOC[C@@H]4C)nc3n2)c1 [AZD2014, Vistusertib]
pIC50 (SARS-CoV-2 [1]; [9]): 7.47
pIC50 (SARS-CoV-2 [1]; Vero E6 cells): > 7.60
antiviral activity (prevention of viral CPE) in primary screen (SARS-CoV-2 [2]): antiviral activity
anti-viral activity in secondary screen (SARS-CoV-2 [3]): not exhibited potent anti-viral activity

CC(=O)Nc1nc(C)c(-c2ccc(Cl)c(S(=O)(=O)NCCO)c2)s1 [PIK-93]
antiviral activity (prevention of viral CPE) in primary screen (SARS-CoV-2 [2]): antiviral activity

CS(=O)(=O)N1CCN(Cc2cc3nc(-c4cccc5[nH]ncc45)nc(N4CCOCC4)c3s2)CC1 [GDC-0941, Pictilisib]
antiviral activity (prevention of viral CPE) in primary screen (SARS-CoV-2 [2]): antiviral activity

C[C@H](Nc1ncnc2nc[nH]c12)c1cc2cccc(Cl)c2c(=O)n1-c1ccccc1 [IPI-145]
antiviral activity (prevention of viral CPE) in primary screen (SARS-CoV-2 [2]): antiviral activity

Nc1ccc(C(=O)Nc2cccc(-c3nc(N4CCOCC4)c4oc5ncccc5c4n3)c2)cn1 [YM201636]
antiviral activity (prevention of viral CPE) in primary screen (SARS-CoV-2 [2]): antiviral activity

Cn1c(=O)n(-c2ccc(C(C)(C)C#N)cc2)c2c3cc(-c4cnc5ccccc5c4)ccc3ncc21 [Dactolisib]
pIC50 (SARS-CoV-2 [1]; [9]): 6.95
cardiomyocyte beating (beats per minute) (hiPSC-CMs; SARS-CoV-2-infected hiPSC-CMs): affected the cardiomyocyte functional beating
in vitro cardiotoxicity (hiPSC-CMs; hiPSC-CMs): had cardiotoxicity
virus production (infectious virus, TCID50, in supernatant) (SARS-CoV-2 [4]): inhibited viral production

CSc1cccc(Nc2ncc3cc(-c4c(Cl)cccc4Cl)c(=O)n(C)c3n2)c1 [PD173955]
antiviral activity (prevention of viral CPE) in primary screen (SARS-CoV-2 [2]): antiviral activity

CO[C@H]1CC[C@H](N2C(=O)CNc3ncc(-c4ccc(C(C)(C)O)nc4)nc32)CC1 [CC-223, Onatasertib]
antiviral activity (prevention of viral CPE) in primary screen (SARS-CoV-2 [2]): antiviral activity

COc1ccc(-c2ccc3c(N4CCOC[C@@H]4C)nc(N4CCOC[C@@H]4C)nc3n2)cc1CO [AZD8055]
antiviral activity (prevention of viral CPE) in primary screen (SARS-CoV-2 [2]): antiviral activity

COc1cc2c(Nc3ccc(NC(=O)c4ccccc4)cc3)ncnc2cc1OCCCN1CCOCC1 [ZM 447439]
antiviral activity (prevention of viral CPE) in primary screen (SARS-CoV-2 [2]): antiviral activity

NC(=O)c1ccc(N(C(N)=O)c2c(F)cccc2F)nc1-c1ccc(F)cc1F [VX-702]
antiviral activity (prevention of viral CPE) in primary screen (SARS-CoV-2 [2]): antiviral activity

Nc1ccc(-c2ccc3ncc4ccc(=O)n(-c5cccc(C(F)(F)F)c5)c4c3c2)cn1 [Torin 2]
pIC50 (SARS-CoV-2 [1]; Vero E6 cells): > 7.60
antiviral activity (prevention of viral CPE) in primary screen (SARS-CoV-2 [2]): antiviral activity

N#C/C(=C/c1ccc(O)c(O)c1)C(=O)NCc1ccccc1 [AG-490]
antiviral activity (prevention of viral CPE) in primary screen (SARS-CoV-2 [2]): antiviral activity

Cc1cn(-c2cc(NC(=O)c3ccc(C)c(Nc4nccc(-c5cccnc5)n4)c3)cc(C(F)(F)F)c2)cn1 [Nilotinib]
pIC50 (SARS-CoV-2 [1]; [9]): 6.90 to 7.30
antiviral activity (prevention of viral CPE) in primary screen (SARS-CoV-2 [2]): antiviral activity
anti-viral activity in secondary screen (SARS-CoV-2 [3]): not exhibited potent anti-viral activity

FC(F)c1nc2ccccc2n1-c1nc(N2CCOCC2)nc(N2CCOCC2)n1 [ZSTK474]
antiviral activity (prevention of viral CPE) in primary screen (SARS-CoV-2 [2]): antiviral activity

CCC(CC)COC(=O)[C@H](C)N[P@](=O)(OC[C@H]1O[C@@](C#N)(c2ccc3c(N)ncnn23)[C@H](O)[C@@H]1O)Oc1ccccc1 [Remdesivir]
CC50 at 24 h [5]: > 10000 nM
pIC50 (SARS-CoV-2 [6]): 6.80
pIC50 (SARS-CoV-2 [6]; A549-ACE2 cells, […]): 6.70
median effective dose (ED50), percentage of infected cells (SARS-CoV-2 [7]): 124 nM
pIC50 (SARS-CoV-2 [8]): 6.82

CNC(=O)Nc1ccc(-c2nc(N3CC4CCC(C3)O4)c3cnn(C4CCC5(CC4)OCCO5)c3n2)cc1 [WYE-125132]
antiviral activity (prevention of viral CPE) in primary screen (SARS-CoV-2 [2]): antiviral activity

O=c1ncn2nc(Sc3ccc(F)cc3F)ccc2c1-c1c(Cl)cccc1Cl [VX-745]
antiviral activity (prevention of viral CPE) in primary screen (SARS-CoV-2 [2]): antiviral activity

Nc1ncnc2c1c(-c1cnc3[nH]ccc3c1)nn2C1CCCC1 [PP121]
antiviral activity (prevention of viral CPE) in primary screen (SARS-CoV-2 [2]): antiviral activity

CCS(=O)(=O)Nc1ccc2c(c1)/C(=C(/Nc1ccc(CN3CCCCC3)cc1)c1ccccc1)C(=O)N2 [Hesperadin]
antiviral activity (prevention of viral CPE) in primary screen (SARS-CoV-2 [2]): antiviral activity

CS(=O)(=O)N1CCc2c(-c3cnc(N)nc3)nc(N3CCOCC3)nc21 [CH5132799]
antiviral activity (prevention of viral CPE) in primary screen (SARS-CoV-2 [2]): antiviral activity

CCCCCCCCCCCCCCCCCCOP(=O)([O-])OC1CC[N+](C)(C)CC1 [Perifosine]
antiviral activity (prevention of viral CPE) in primary screen (SARS-CoV-2 [2]): antiviral activity

COc1cc2ncnc(Oc3cccc(NC(=O)Nc4cc(C(C)(C)C(F)(F)F)on4)c3)c2cc1OC [CEP-32496]
antiviral activity (prevention of viral CPE) in primary screen (SARS-CoV-2 [2]): antiviral activity
